Results: patent US11560366B2, “Bicyclo[1.1.1]pentane inhibitors of dual leucine zipper (DLK) kinase for the treatment of disease” (Board of Regents, The University of Texas System, priority 2019, dated 2023)

Key:
human DLK = human DLK (Homo sapiens (Human), UniProt Q12852); assay: DLK Kd determination (KINOMEscan KdELECT, DiscoveRx); type: binding; settings: read-out: Kd
Description: The DLK dissociation constants (Kd) have been determined in the KINOMEscan KdELECT Service at DiscoveRx.
A fusion protein of full length of human DLK (amino acids 1-859) and the DNA binding domain of NFkB was expressed in transiently transfected HEK293 cells. From these HEK 293 cells, extracts were prepared in M-PER extraction buffer (Pierce) in the presence of Protease Inhibitor Cocktail Complete (Roche) and Phosphatase Inhibitor Cocktail Set II (Merck) per manufacturers' instructions. The DLK fusion protein was labeled with a chimeric double-stranded DNA tag containing the NFkB binding site (5′-[sequence]-3′, SEQ ID NO:1) fused to an amplicon for qPCR readout, which was added directly to the expression extract (the final concentration of DNA-tag in the binding reaction is 0.1 nM).
The liganded beads were blocked with excess biotin and washed with blocking buffer (SeaBlock (Pierce), 1% BSA, 0.05% Tween 20, 1 mM DTT) to remove unbound ligand and to reduce nonspecific binding.
Extracts were used directly in binding assays without any enzyme purification steps at a >10,000-fold overall stock dilution (final DNA-tagged enzyme concentration <0.1 nM). Extracts were loaded with DNA-tag and diluted into the binding reaction in a two step process. First extracts were diluted 1:100 in 1× binding buffer (PBS/0.05% Tween 20/10 mM DTT/0.1% BSA/2 μg/ml sonicated salmon sperm DNA) containing 10 nM DNA-tag. This dilution was allowed to equilibrate at room temperature for 15 minutes and then subsequently diluted 1:100 in 1× binding buffer. Test compounds were prepared as 111× stocks in 100% DMSO. Kds were determined using an 11-point 3-fold compound dilution series with three DMSO control points. […] The compounds were then diluted directly into the assays such that the final concentration of DMSO was 0.9%. All reactions performed in polypropylene 384-well plates. Each was a final volume of 0.02 mL. Assays were incubated with shaking for 1 hour at room temperature. Then the beads were pelleted and washed with wash buffer (1×PBS, 0.05% Tween 20) to remove displaced kinase and test compound. […] The kinase concentration in the eluates was measured by qPCR. qPCR reactions were assembled by adding 2.5 μL of kinase eluate to 7.5 μL of qPCR master mix containing 0.15 μM amplicon primers and 0.15 μM amplicon probe.
Test compounds were prepared as 111× stocks in 100% DMSO. Kds were determined using an 11-point 3-fold compound dilution series with three DMSO control points. […] The compounds were then diluted directly into the assays such that the final concentration of DMSO was 0.9%. The Kds were determined using a compound top concentration of 30,000 nM. Kd measurements were performed in duplicate.
Binding constants (Kds) were calculated with a standard dose-response curve using the Hill equation:
The Hill Slope was set to −1.

[1] = Metabolic stability in liver microsomes, mouse; type: in vitro ADME, CD-1 mouse; settings: CD-1, liver microsomes, 0.5 mg/mL microsomes, NADPH, 45 minutes, 37° C., read-out: Half-life in liver microsomes (t1/2, minutes)
Description: (§1) The test compound was incubated with liver microsomes (0.5 mg/mL) from CD-1 mouse, Sprague Dawley rat, Beagle dog, Cynomolgus monkey, and human in the presence of NADPH for 45 minutes at 37° C. The % parent remaining over time was determined by LC-MS/MS, using peak area ratios. Half-life (t1/2) was calculated using the following equation: t1/2=ln2/k, where k is the rate constant of parent decay over time (slope of the plot of log[% parent remaining] versus time).

[2] = Metabolic stability in liver microsomes, rat; type: in vitro ADME; settings: Sprague Dawley, 0.5 mg/mL microsomes, NADPH, 45 minutes, 37° C., read-out: Half-life in liver microsomes (t1/2, minutes)
Description: as §1

[3] = Metabolic stability in liver microsomes, dog; type: in vitro ADME; settings: Beagle, 0.5 mg/mL microsomes, NADPH, 45 minutes, 37° C., read-out: Half-life in liver microsomes (t1/2, minutes)
Description: as §1

[4] = Metabolic stability in liver microsomes, monkey; type: in vitro ADME, Cynomolgus monkey; settings: 0.5 mg/mL microsomes, NADPH, 45 minutes, 37° C., read-out: Half-life in liver microsomes (t1/2, minutes)
Description: as §1

[5] = Metabolic stability in liver microsomes, human; type: in vitro ADME; settings: 0.5 mg/mL microsomes, NADPH, 45 minutes, 37° C., read-out: Half-life in liver microsomes (t1/2, minutes)
Description: as §1

[6] = Rat pharmacokinetics, single dose; type: in vivo, Wistar Han rats; settings: for clearance / half-life / Vd / AUC(0-t) / Cmax / bioavailability: rat, in vivo, Wistar Han rats; for clearance / half-life / Vd: IV dose 1 mg/kg; for Vd: read-out: Vss; for AUC(0-t) / Cmax / bioavailability: oral dose 3 mg/kg; for clearance in rats, comparison in words / half-life in rats, comparison in words: relative to comparator compound 13
Description: Pharmacokinetics for compounds 13, 1a, and 9b were determined using single dosage of Wistar Han rats using techniques that are well known in the art.

[7] = Mouse pharmacokinetics, single dose; type: in vivo, male C57BL/6 mice; settings: for Kp / unbound brain-to-plasma ratio (Kp,uu): male, C57BL/6, mouse, brain and plasma, po, 10 mg/kg, based on AUC; for Kp / unbound brain-to-plasma ratio (Kp,uu) / clearance / half-life / Vd / AUC(0-t) / Cmax / bioavailability: male C57BL/6 mice; for Kp / unbound brain-to-plasma ratio (Kp,uu) / AUC(0-t) / Cmax / bioavailability: oral dose 10 mg/kg; for Kp: read-out: Brain/Plasma Ratio; for unbound brain-to-plasma ratio (Kp,uu): read-out: Free Brain/Plasma Ratio; for clearance / half-life / Vd / AUC(0-t) / Cmax / bioavailability: mouse; for clearance / half-life / Vd: in vivo, IV dose 0.3 mg/kg (1a, 4b, 13, 14b, 16; IV dose of 8a, 9b not stated); for Vd: read-out: Vss; for AUC(0-t) / Cmax / bioavailability: plasma; for clearance in mice, comparison in words / half-life in mice, comparison in words: relative to comparator compounds 13 or 14b
[8] = Metabolic stability in liver microsome preparations, overall comparison; type: in vitro ADME; settings: relative to comparator compounds 13 or 14/14b (WO2018207072)
Description: as §1

Chain of human DLK (Q12852 whole entry): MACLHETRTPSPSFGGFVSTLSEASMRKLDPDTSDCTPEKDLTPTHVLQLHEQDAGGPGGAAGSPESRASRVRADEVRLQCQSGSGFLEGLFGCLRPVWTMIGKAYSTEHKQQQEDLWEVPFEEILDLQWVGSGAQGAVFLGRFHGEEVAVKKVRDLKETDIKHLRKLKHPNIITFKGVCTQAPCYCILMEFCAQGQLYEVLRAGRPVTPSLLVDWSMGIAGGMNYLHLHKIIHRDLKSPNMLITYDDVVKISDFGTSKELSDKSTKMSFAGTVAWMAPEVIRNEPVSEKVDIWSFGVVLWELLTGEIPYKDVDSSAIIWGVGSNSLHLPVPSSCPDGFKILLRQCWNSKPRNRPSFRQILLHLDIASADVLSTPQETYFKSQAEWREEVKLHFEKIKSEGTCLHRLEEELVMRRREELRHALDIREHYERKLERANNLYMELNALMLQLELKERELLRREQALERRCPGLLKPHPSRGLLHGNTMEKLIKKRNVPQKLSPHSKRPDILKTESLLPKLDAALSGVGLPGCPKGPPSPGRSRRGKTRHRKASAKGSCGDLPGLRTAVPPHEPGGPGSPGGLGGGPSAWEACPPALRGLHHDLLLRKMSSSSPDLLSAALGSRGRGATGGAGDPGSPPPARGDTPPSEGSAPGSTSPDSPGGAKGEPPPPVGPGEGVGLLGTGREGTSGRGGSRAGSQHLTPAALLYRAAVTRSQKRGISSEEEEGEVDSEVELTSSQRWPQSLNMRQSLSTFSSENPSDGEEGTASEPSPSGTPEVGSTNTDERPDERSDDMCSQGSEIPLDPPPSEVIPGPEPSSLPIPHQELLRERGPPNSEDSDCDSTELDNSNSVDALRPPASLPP

| SMILES | Kd (human DLK) | half-life [1] | half-life [2] | half-life [3] | half-life [4] | half-life [5] | clearance [6] | half-life [6] | Vd [6] | AUC(0-t) [6] | Cmax [6] | bioavailability [6] | clearance in rats, comparison in words [6] | half-life in rats, comparison in words [6] | Kp [7] | unbound brain-to-plasma ratio (Kp,uu) [7] | clearance [7] | half-life [7] | Vd [7] | AUC(0-t) [7] | also measured |
| --- | --- | --- | --- | --- | --- | --- | --- | --- | --- | --- | --- | --- | --- | --- | --- | --- | --- | --- | --- | --- | --- |
| Nc1ncc(-c2cn(C34CC(F)(C3)C4)c([C@@H](O)C(F)(F)F)n2)cc1OC(F)(F)F (single isomer, unassigned) [Example 1a] | 2.2 nM | 378 min | 154 min | 287 min | 182 min | 558 min | 5.9 mL/min/kg | 11.5 h | 4.9 L/kg | 16.8 µM·h | 1310 nM | 103% | reduced clearance | longer half-life | 1.77 | 0.92 | 4.3 mL/min/kg | 12.7 h | 4.5 L/kg | 111 µM·h | Cmax [7]: 6360 nM; bioavailability [7]: 154%; clearance in mice, comparison in words [7]: reduced clearance; half-life in mice, comparison in words [7]: longer half-life; microsomal stability, comparison in words [8]: improvements to microsomal stability |
| Nc1ncc(-c2cn(C34CC(N5CCC(F)(F)CC5)(C3)C4)c([C@H](O)C(F)(F)F)n2)cc1OC(F)(F)F (single isomer, unassigned) [Example 9b] | 1 nM | 240 min | 581 min | 240 min | 331 min | 297 min | 2.8 mL/min/kg | 22.7 h | 4.7 L/kg | 19.2 µM·h | 1050 nM | 95.9% | reduced clearance | longer half-life | 0.7 | 0.31 | 3.9 mL/min/kg | 15.9 h | 4.8 L/kg | 39.6 µM·h | Cmax [7]: 2310 nM; bioavailability [7]: 70.5%; clearance in mice, comparison in words [7]: reduced clearance; half-life in mice, comparison in words [7]: longer half-life; microsomal stability, comparison in words [8]: improvements to microsomal stability |
